Results on 4 compounds are retold here after patent US6869797B2, “Method for more efficient electroporation” (Stratagene California, priority 1998, dated 2005).

One experiment deals with E. coli. In words: Effect of additives added to thawed competent cells on electroporation efficiency (pCMV-Script plasmid). The format is cell-based. The note with it: added after thawing, colonies with additive divided by colonies without. As for the experimental part:
Specifically, galactose (an aldohexose monosaccharide), maltose (an aldohexose disaccharide), mannitol (an aldohexose alcohol), and sorbitol (an aldohexose alcohol) additives were tested.
After two hours of freezing, competent cells were thawed and amounts varying between 0.1% and 5.0% of various sugar or sugar aldoses were added to the thawed cells. 1 μl of 10 pg/μl plasmid, pCMV-Script (Stratagene #211199) in TE buffer or water (or other low-ionic strength buffer) was added to 40 μl of the treated cells in a chilled 1.5 ml Microfuge tube. The cells were gently mixed and chilled.
The DNA-cell mixture was transferred to a chilled electroporation cuvette. The cuvette was pulsed once, using a Bio-Rad II Gene Pulsar, at 1.7 kV (kilo Volts), 200 Ω and 25 μF. The cuvette was immediately removed and 960 μl of SOC medium (2 ml of 20% glucose and 1 ml of 2M Mg per 100 ml of SOB medium) was added to resuspend the cells.
That suspension was transferred to a sterile 15-ml Falcon 2059 polypropylene tube and shaken at 225-250 rpm at 37° C. for 1 hour. We pipetted 2.5 μl of transformed cells into a 100 μl pool of SOC medium on an Amp plate (Sambrook et al. 1997). The cell/media mixture was spread over the Amp plates. The plates were incubated overnight (16-20 hours) at 37° C.

Another experiment has as its system XL1-Blue cells. Briefly: Effect of sorbitol added before freezing on electrotransformation efficiency (pUC18 plasmid). The note with it: average of 6 values. The format is cell-based, E. coli. As for the experimental part:
The effect of adding sugars, prior to freezing the cells, was tested for improved electroporation efficiency. Sorbitol was chosen as the first test compound.
To determine the optimal concentration of sorbitol, the above protocol was followed to produce electrocompetent bacterial cells. However, before freezing the cells, a solution of sorbitol was added such that the final concentrations of the suspension of cells varied from 0%, 1.0%, 2.0%, and 2.5%.
1 μl of 10 pg/μl plasmid, pUC18 (New England Biolabs) in TE buffer or water (or other low-ionic strength buffer), was added to 40 μl of the treated cells in a chilled 1.5 ml Microfuge tube. Transformed cells were obtained by following the above protocol. Various experiments were run to determine the efficiency of transformation. Five different preparations were tested in triplicate, and each preparation was plated in duplicate.

Where [1] appears, read: additive final concentration 1.0%.
The mark [2] stands for this setting: additive final concentration 2.0%.
[3] abbreviates: additive final concentration 0.75%.

Turning to `OC[C@H]1O[C@H](O[C@H]2[C@H](O)[C@@H](O)C(O)O[C@@H]2CO)[C@H](O)[C@@H](O)[C@@H]1O` (mixture of isomers) [maltose], the Relative efficiency in the experiment with E. coli (setting [1]) is listed as 1.50; in the experiment on E. coli (additive final concentration 2.5%) it was 3.00; in the experiment with E. coli (additive final concentration 3.0%) it was 1.30; in the experiment with E. coli (additive final concentration 4.0%), 1.50.
As for `O=C[C@H](O)[C@@H](O)[C@@H](O)[C@H](O)CO` [galactose], the Relative efficiency is 2.20 in the experiment with E. coli (additive final concentration 0.5%), 1.50 in the experiment on E. coli (setting [1]) and 2.40 with E. coli (setting [2]).
For the compound `OC[C@@H](O)[C@@H](O)[C@H](O)[C@H](O)CO` [mannitol], the Relative efficiency in the experiment with E. coli (setting [3]) was found to be 3.00; with E. coli (setting [1]) it was 2.80; in the experiment with E. coli (additive final concentration 1.25%) it was 3.30; with E. coli (setting [2]), 2.90; in the experiment with E. coli (additive final concentration 2.20%) it was 2.80; in the experiment with E. coli (additive final concentration 2.40%) it was 1.90.
In the case of `OC[C@@H](O)[C@@H](O)[C@H](O)[C@@H](O)CO` [sorbitol], the Relative efficiency with E. coli (setting [3]) is 2.20; with E. coli (setting [1]), 2.80; with E. coli (additive final concentration 1.50%), 3.10; in the experiment on E. coli (setting [2]), 1.50. Further, the “Efficiency (cfu/ug pUC18)” value in the experiment on XL1-Blue cells (Experiment #1, 2.0% sorbitol added before freezing) was 1.2 × 10^10 cfu/ug pUC18; with XL1-Blue cells (Experiment #1, 2.5% sorbitol added before freezing), 1.6 × 10^10 cfu/ug pUC18; with XL1-Blue cells (Experiment #2, 1.0% sorbitol added before freezing), 1.23 × 10^10 cfu/ug pUC18; in the experiment on XL1-Blue cells (Experiment #2, 2.0% sorbitol added before freezing) it was 1.66 × 10^10 cfu/ug pUC18; in the experiment with XL1-Blue cells (Experiment #2, 2.5% sorbitol added before freezing), 1.48 × 10^10 cfu/ug pUC18; in the experiment on XL1-Blue cells (Experiment #3, 1.0% sorbitol added before freezing) it was 1.03 × 10^10 cfu/ug pUC18. In addition, the “Efficiency (cfu/ug pUC18)” value was 1.23 × 10^10 cfu/ug pUC18 in the experiment with XL1-Blue cells (Experiment #3, 2.0% sorbitol added before freezing); 1.33 × 10^10 cfu/ug pUC18 in the experiment with XL1-Blue cells (Experiment #3, 2.5% sorbitol added before freezing); 1.29 × 10^10 cfu/ug pUC18 in the experiment on XL1-Blue cells (Experiment #4, 2.0% sorbitol added before freezing); 1.39 × 10^10 cfu/ug pUC18 with XL1-Blue cells (Experiment #4, 2.5% sorbitol added before freezing); 1.60 × 10^10 cfu/ug pUC18 in the experiment on XL1-Blue cells (Experiment #5, 2.0% sorbitol added before freezing); 1.60 × 10^10 cfu/ug pUC18 in the experiment with XL1-Blue cells (Experiment #5, 2.5% sorbitol added before freezing).
